Patent US10077243B2, “Compounds for treating disorders mediated by metabotropic glutamate receptor 5, and methods of use thereof” (Sunovion Pharmaceuticals Inc., priority 2009, dated 2018)

What follows are compounds tested against T1, human mGluR5 (Homo sapiens, UniProt P41594) (assay: In vitro cell-based FLIPR calcium assay for positive modulation of the activation of mGluR5 by glutamate (PAM EC50)). Settings: HEK293/GLAST cells expressing recombinant human mGluR5; FLIPR calcium signal; glutamate added at its EC20; read-out: mGluR5 PAM EC50.
T1 construct: expressed in transfected cells; host or cells: HEK293 cells stably expressing rat GLAST (EAAT1), stably transfected with pcDNAzeo3.1 carrying synthetic human mGluR5 DNA; zeocin-selected single clones
T1 sequence (P41594 21-1212): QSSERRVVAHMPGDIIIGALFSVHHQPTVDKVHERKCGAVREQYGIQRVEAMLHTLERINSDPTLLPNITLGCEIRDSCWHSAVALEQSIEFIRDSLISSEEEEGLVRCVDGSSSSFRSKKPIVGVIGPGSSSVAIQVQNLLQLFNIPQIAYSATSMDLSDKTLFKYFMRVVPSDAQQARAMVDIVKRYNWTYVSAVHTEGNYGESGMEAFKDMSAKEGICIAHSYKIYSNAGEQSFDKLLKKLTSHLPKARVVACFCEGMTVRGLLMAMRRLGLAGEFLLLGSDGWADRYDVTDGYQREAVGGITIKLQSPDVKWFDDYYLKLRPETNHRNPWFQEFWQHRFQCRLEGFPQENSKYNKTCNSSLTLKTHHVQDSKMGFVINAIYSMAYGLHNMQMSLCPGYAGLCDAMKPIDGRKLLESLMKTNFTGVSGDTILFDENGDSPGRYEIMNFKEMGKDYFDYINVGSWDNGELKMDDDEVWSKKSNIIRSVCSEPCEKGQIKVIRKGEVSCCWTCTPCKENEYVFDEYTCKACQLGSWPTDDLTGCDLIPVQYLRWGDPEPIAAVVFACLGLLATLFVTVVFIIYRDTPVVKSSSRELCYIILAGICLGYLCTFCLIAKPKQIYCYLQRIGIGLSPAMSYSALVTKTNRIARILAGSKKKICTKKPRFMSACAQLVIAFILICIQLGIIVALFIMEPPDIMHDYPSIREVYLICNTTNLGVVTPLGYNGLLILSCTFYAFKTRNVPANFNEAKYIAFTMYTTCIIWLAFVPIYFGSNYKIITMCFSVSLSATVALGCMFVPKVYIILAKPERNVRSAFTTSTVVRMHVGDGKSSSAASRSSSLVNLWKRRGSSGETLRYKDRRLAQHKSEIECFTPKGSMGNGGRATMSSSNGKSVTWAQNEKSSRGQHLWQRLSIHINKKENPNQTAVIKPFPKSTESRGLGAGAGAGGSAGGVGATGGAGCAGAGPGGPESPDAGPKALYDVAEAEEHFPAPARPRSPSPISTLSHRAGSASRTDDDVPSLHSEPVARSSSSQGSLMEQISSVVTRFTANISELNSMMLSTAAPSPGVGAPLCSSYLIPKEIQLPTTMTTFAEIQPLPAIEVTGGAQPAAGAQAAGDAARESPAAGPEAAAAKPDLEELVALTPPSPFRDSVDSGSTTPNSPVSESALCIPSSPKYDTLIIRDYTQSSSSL
Method in brief: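 PAM activity was measured as FLIPR calcium fluorescence in the presence of an EC20 glutamate concentration determined daily from a glutamate concentration-response curve. Cells were HEK293/GLAST clones expressing mGluR5, dye-loaded at 25 °C for 45–60 min in HEPES-buffered HBSS; vehicle control was 0.3% DMSO.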

EC50 [nM] | Structure (SMILES)
< 10 | O=c1c2ccc(/C=C/c3ccccc3)cc2nc2n1CCCCC2 [Example 20.2, (E)-3-styryl-7,8,9,10-tetrahydroazepino[2,1-b]quinazolin-12(6H)-one]
100 to 300 | O=c1c2ccc(C#Cc3cccc(F)c3)cc2nc2n1CCNCC2 [Example 8.6, 8-((3-fluorophenyl)ethynyl)-2,3,4,5-tetrahydro-[1,4]diazepino[7,1-b]quinazolin-11(1H)-one]
< 10 | CCOC(C)c1cnc2cc(C#Cc3cccc(F)c3)ccn2c1=O (stereo not shown) [Example 13.2, 3-(1-ethoxyethyl)-8-((3-fluorophenyl)ethynyl)-4H-pyrido[1,2-a]pyrimidin-4-one]
30 to 100 | CN1CCCc2nc3cc(C#Cc4cccc(F)c4)ccc3c(=O)n2CC1 [Example 10.4, 9-((3-fluorophenyl)ethynyl)-3-methyl-3,4,5,6-tetrahydro-1H-[1,4]diazocino[8,1-b]quinazolin-12(2H)-one]
30 to 100 | Cc1ccnc(C#Cc2ccc3c(=O)n4c(nc3c2)CCC2(CC4)OCCO2)c1 [Example 7.48]
10 to 30 | CN1CCCn2c(nc3cc(C#Cc4cccc(F)c4)ccc3c2=O)CC1 [Example 10.3, 11-((3-fluorophenyl)ethynyl)-3-methyl-3,4,5,6-tetrahydro-1H-[1,5]diazocino[2,1-b]quinazolin-8(2H)-one]
30 to 100 | O=c1c2ccc(C#Cc3ccnc(F)c3)cc2nc2n1CCC1(CC2)OCCO1 [Example 7.17]
300 to 1000 | O=c1c2ccc(C#Cc3ccccn3)nc2nc2n1CCCCC2 [Example 12.5, 2-(pyridin-2-ylethynyl)-8,9,10,11-tetrahydropyrido[2′,3′:4,5]pyrimido[1,2-a]azepin-5(7H)-one]
30 to 100 | O=c1c2ccc(C#Cc3cccs3)cc2nc2n1CCC1(CC2)OCCO1 [Example 7.57]
10 to 30 | Cc1cnc(NC(=O)c2ccc3c(=O)n4c(nc3c2)C(C)CCCCC4)s1 (stereo not shown) [Example 25.3, 6-methyl-N-(5-methylthiazol-2-yl)-13-oxo-7,8,9,10,11,13-hexahydro-6H-azocino[2,1-b]quinazoline-3-carboxamide]
30 to 100 | CC1Cc2nc3cc(/C=C/c4ccccc4)ccc3c(=O)n2C1 (stereo not shown) [Example 20.4, (E)-2-methyl-6-styryl-2,3-dihydropyrrolo[2,1-b]quinazolin-9(1H)-one]

More lines, now with the values behind:

Structure (SMILES) | EC50 [nM]
CC1CCc2c(nc3cc(C#Cc4ccccn4)ccn3c2=O)C1 (stereo not shown) [Example 15.2, 3-methyl-7-(pyridin-2-ylethynyl)-3,4-dihydro-1H-pyrido[2,1-b]quinazolin-11(2H)-one] | < 10
CN1CCc2nc3cc(C#Cc4ccc(F)cc4)ccn3c(=O)c2CC1 [Example 16.7, 8-((4-fluorophenyl)ethynyl)-3-methyl-2,3,4,5-tetrahydropyrido[1′,2′:1,2]pyrimido[4,5-d]azepin-12(1H)-one] | 300 to 1000
CC1CCc2nc3cc(C#Cc4cccc(F)c4)ccc3c(=O)n2CC1 (stereo not shown) [Example 6.7, 3-((3-fluorophenyl)ethynyl)-8-methyl-7,8,9,10-tetrahydroazepino[2,1-b]quinazolin-12(6H)-one] | < 10
CC1(C)CCn2c(nc3cc(C#Cc4cccc(F)c4)ccc3c2=O)C1 [Example 4.13, 3-((3-fluorophenyl)ethynyl)-7,7-dimethyl-8,9-dihydro-6H-pyrido[2,1-b]quinazolin-11(7H)-one] | < 10
O=c1c2ccc(C#Cc3ccc(F)cc3)cc2ncn1CC1CCCO1 (single isomer, unassigned) [1.15/1.16 faster moving enantiomer (fraction 1), 7-((4-fluorophenyl)ethynyl)-3-((tetrahydrofuran-2-yl)methyl)quinazolin-4(3H)-one] | 10 to 30
O=c1c2ccc(C#Cc3cccc(F)c3)cc2nc2n1CC(Cc1ccccc1)C2 (stereo not shown) [Example 3.10] | < 10
O=c1c2ccc(C#Cc3ccc(F)c(F)c3)cc2nc2n1CCC1(CC2)OCCO1 [Example 7.5] | 100 to 300
CCCn1cnc2cc(C#Cc3cccc(F)c3)ccc2c1=O [Example 1.7, 7-((3-fluorophenyl)ethynyl)-3-propylquinazolin-4(3H)-one] | 10 to 30
